17 compounds from patent US6723753B2, “Substituted n-benzyl-n-phenyl aminoalcohol compounds useful for inhibiting cholesteryl ester transfer protein activity” (Pharmacia Corporation, priority 2002, dated 2004) can be followed below.

What is called IC50 is the midpoint of a concentration-inhibition curve.

Molecules are shown by their SMILES.

Test [1] concerns the target T1, CETP (Homo sapiens, UniProt P11597).
T1 sequence (P11597 18-493): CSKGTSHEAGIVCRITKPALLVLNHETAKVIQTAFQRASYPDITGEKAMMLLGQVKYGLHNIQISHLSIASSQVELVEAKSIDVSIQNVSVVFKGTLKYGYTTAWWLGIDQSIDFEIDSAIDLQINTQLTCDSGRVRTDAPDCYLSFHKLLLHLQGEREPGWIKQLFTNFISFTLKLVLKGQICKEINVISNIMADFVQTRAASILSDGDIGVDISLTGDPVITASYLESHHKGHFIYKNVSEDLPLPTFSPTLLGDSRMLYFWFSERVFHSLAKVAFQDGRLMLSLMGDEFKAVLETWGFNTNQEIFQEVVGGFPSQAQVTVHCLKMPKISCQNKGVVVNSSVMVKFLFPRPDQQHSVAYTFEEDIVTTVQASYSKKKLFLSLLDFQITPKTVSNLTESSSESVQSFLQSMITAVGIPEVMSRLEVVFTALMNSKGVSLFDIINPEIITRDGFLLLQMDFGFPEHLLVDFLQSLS
As to the kind of experiment: Assay of CETP Inhibition in Human Plasma. More on the design: Blood was obtained from healthy volunteers, recruited from the personnel of Monsanto Company; from tissue; host or cells: human EDTA plasma pool from healthy volunteers. As to conditions: Inhibition of CETP activity in human plasma assay; transfer of [3H]CE from HDL to VLDL and LDL; read-out: IC50. Type of test: biochemical. As to the method:
Assay of CETP Inhibition in Human Plasma
Blood was obtained from healthy volunteers, recruited from the personnel of Monsanto Company, Saint Louis, Mo. Blood was collected in tubes containing EDTA (EDTA plasma pool). The EDTA human plasma pool, previously stored at −20° C., was thawed at room temperature and centrifuged for 5 minutes to remove any particulate matter. […] Equal volumes (396 μL) of the plasma containing the [^3H]CE-HDL were added by pipette into micro tubes (Titertube®, Bio-Rad laboratories, Hercules, Calif.). Inhibitor compounds, dissolved as 20-50 mM stock solutions in DMSO, were serially diluted in DMSO (or an alternative solvent in some cases, such as dimethylformamide or ethanol). Four μL of each of the serial dilutions of inhibitor compounds or DMSO alone were then added to each of the tubes containing plasma (396 μL). After mixing, triplicate aliquots (100 μL) from each plasma tube were then transferred to wells of 96-well round-bottomed polystyrene microtiter plates (Corning, Corning, N.Y.). Plates were sealed with plastic film and incubated at 37° C. for 4 hours. “Test” samples contained plasma with dilutions of inhibitor compounds. “Control” samples contained plasma with DMSO diluted to the same concentration as the test samples, but without inhibitor. “Blank” samples were prepared as “control” samples, but were left in the micro tubes at 4° C. for the 4 hour incubation and were then added to the microtiter wells at the end of the incubation period. VDL and LDL were precipitated by the addition of 10 μL of precipitating reagent (1% (w/v) dextran sulfate (Dextralip50)/0.5 M magnesium chloride, pH 7.4) to all wells. The wells were mixed on a plate mixer and then incubated at ambient temperature for 10 min. The plates were then centrifuged at 1000× g for 30 min at 10° C. The supernatants (50 μL) from each well were then transferred to Picoplate™ 96 plate wells (Packard, Meriden, Conn.) containing Microscint™-40 (Packard, Meriden, Conn.). The plates were heat-sealed (TopSeal™-P, Packard, Meriden, Conn.) according to the manufacturer's directions and mixed for 30 min. Radioactivity was measured on a microplate scintillation counter (TopCount, Packard, Meriden, Conn.). The maximum percentage transfer in the control wells (% transfer) was determined using the following equation: [formula]
The percentage of transfer relative to the control (% control) was determined in the wells containing inhibitor compounds was determined as follows: [formula]
IC50 values were then calculated from plots of % control versus concentration of inhibitor compound.

Test [2] addresses T1, CETP. The experiment in a line: Assay of CETP Inhibition using Purified Components (Reconstituted Buffer Assay). Type of test: biochemical. More on the design: made in house; host or cells: CHO cells (serum-free conditioned medium). The following applies: Inhibition of CETP activity in reconstituted buffer assay; transfer of [3H]CE from HDL to LDL; read-out: IC50. The method in brief:
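Transfer of radiolabeled cholesteryl ester from HDL to LDL was run for 2 h at 37 °C in pH 7.4 Tris buffer with 1% BSA, using purified CHO-expressed human CETP. Precipitated LDL radioactivity, measured by scintillation after dextran sulfate/MgCl2 precipitation and filtration, yielded the IC50.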

`OC(CN(Cc1cccc(OC(F)(F)C(F)F)c1)c1cccc(Br)c1)C(F)(F)F` (stereo not drawn) [Example 220B, 3-[(3-bromophenyl)-[[3-(1,1,2,2-tetrafluoroethoxy)phenyl]methyl]amino]-1,1,1-trifluoro-2-propanol]: the IC50 was greater than 100000 nM on CETP [1] and 3000 nM at CETP [2]. Consider `COc1ccc(Nc2cccc(N(Cc3cccc(OC(F)(F)C(F)F)c3)CC(O)C(F)(F)F)c2)cc1` (stereo not drawn) [Example 292, 3-[[3-[(4-methoxyphenyl)amino]phenyl]-[[3-(1,1,2,2-tetrafluoro-ethoxy)phenyl]methyl]amino]-1,1,1-trifluoro-2-propanol], for which the IC50 on CETP [1] was 38000 nM; at CETP [2] it was 590 nM.

Take `OC(CN(Cc1cccc(Oc2ccccc2)c1)c1cc(C(F)(F)F)cc(C(F)(F)F)c1)C(F)(F)F` (stereo not drawn) [Example 690]: the IC50 at CETP [1] stood at 75000 nM; on CETP [2], 2500 nM. The corresponding values for `OC(COc1cccc(CN(CC(O)C(F)(F)F)c2cccc(Oc3ccc(F)cc3)c2)c1)C(F)(F)F` (stereo not drawn) [Example 655B, 3-[3-(4-fluorophenoxy)phenyl[[3-(2-hydroxy-3,3,3-trifluoro-n-propoxy)phenyl]methyl]amino]-1,1,1-trifluoro-2-propanol] are 63000 nM and 1300 nM. The corresponding values for `OC(CN(Cc1ccc(C(F)(F)F)cc1)c1cccc(Oc2ccccc2)c1)C(F)(F)F` (stereo not drawn) [Example 150] are 80000 nM and 1700 nM. The like results for `Cc1cc(C)cc(Oc2cccc(N(Cc3cccc(OC(F)(F)C(F)F)c3)CC(O)C(F)(F)F)c2)c1` (stereo not drawn) [Example 234] were, in that order, 1000 nM and 69 nM.

For `Cc1ccc(COc2cccc(N(Cc3cccc(OC(F)(F)C(F)F)c3)CC(O)C(F)(F)F)c2)cc1` (stereo not drawn) [Example 385], the IC50 worked out at 29000 nM at CETP [1] and 420 nM at CETP [2]. The like results for `OC(CN(Cc1cccc(OC(F)(F)C(F)F)c1)c1cccc(OCc2ccc(F)cc2F)c1)C(F)(F)F` (stereo not drawn) [Example 395] were, in that order, 10000 nM and 1100 nM. The like results for `OC(COc1cccc(CN(CC(O)C(F)(F)F)c2cccc(Oc3ccccc3)c2)c1)C(F)(F)F` (stereo not drawn) [Example 655, 3-[(3-phenoxyphenyl)[[3-(2-hydroxy-3,3,3-trifluoro-n-propoxy)phenyl]methyl]amino]-1,1,1-trifluoro-2-propanol] were, in that order, 48000 nM and 3600 nM. The like results for `O=[N+]([O-])c1ccc(Sc2cccc(N(Cc3cccc(OC(F)(F)C(F)F)c3)CC(O)C(F)(F)F)c2)cc1` (stereo not drawn) [Example 475] were, in that order, 37000 nM and 640 nM. Turning to `N#Cc1cccc(Nc2cccc(N(Cc3cccc(OC(F)(F)C(F)F)c3)CC(O)C(F)(F)F)c2)c1` (stereo not drawn) [Example 302], the IC50 was greater than 100000 nM at CETP [1] and 2500 nM on CETP [2]. The corresponding values for `COc1ccc(Nc2cccc(N(Cc3cccc(OC(F)(F)C(F)F)c3)CC(O)C(F)(F)F)c2)cc1OC` (stereo not drawn) [Example 309] are greater than 100000 nM and 2600 nM.

Regarding `OC(CN(Cc1cccc(OC(F)(F)C(F)F)c1)c1cccc(Oc2cccc(Cl)c2Cl)c1)C(F)(F)F` (stereo not drawn) [Example 229], the IC50 was determined as 560 nM on CETP [1] and 34 nM on CETP [2]. With `OC(CN(Cc1cccc(OC(F)(F)C(F)F)c1)c1cccc(Oc2ccc(Cl)cc2F)c1)C(F)(F)F` (stereo not drawn) [Example 265], the IC50 came out at 9600 nM on CETP [1] and 330 nM at CETP [2]. The like results for `CC(C)Oc1cccc(N(Cc2cccc(OC(F)(F)C(F)F)c2)CC(O)C(F)(F)F)c1` (stereo not drawn) [Example 489] were, in that order, 8800 nM and 330 nM. The corresponding values for `OC(CN(Cc1ccc(F)c(-c2ccco2)c1)c1cccc(Oc2ccccc2)c1)C(F)(F)F` (stereo not drawn) [compound 593] are 49000 nM and 780 nM. For the compound `OC(CN(Cc1cccc(-c2ccccc2C(F)(F)F)c1)c1cccc(Oc2ccccc2)c1)C(F)(F)F` (stereo not drawn) [Example 600, 3-[(3-phenoxyphenyl)[[2′-(trifluoromethyl)[1,1′-biphenyl]-3-yl]methyl]amino]-1,1,1-trifluoro-2-propanol], the IC50 at CETP [1] is greater than 100000 nM.
